{
  "source": "patent US5470883A",
  "about": "(priority 1994, dated 1995)",
  "key": {"[1]": {"system": "epinephrine vasoconstriction, central artery of the rabbit ear", "experiment": "Transcutaneous oxygen monitor assessment of distal peripheral oxygen tension after epinephrine injection around the central artery of the rabbit ear", "type": "in vivo, New Zealand adult white rabbits", "conditions": "for effect of pretreatment on epinephrine-induced fall in peripheral blood flow / vasoconstriction: pretreatment two days, then epinephrine, estradiol 0.1 mg/kg/day, tamoxifen 2.0 mg/kg/day", "procedure": "A study utilizing 18 New Zealand adult white rabbits was performed. […] This was injected through a 27 gauge needle directly surrounding the central artery of the rabbit ear. Distally peripheral tissue oxygen tension was assessed utilizing a precalibrated transcutaneous oxygen monitor. Measurements were taken prior to injection to maintenance of a steady state. If a steady state was not reached the experiment was discontinued and retried at a later time. Post-injection measurements were taken until the return to baseline levels or up to two hours post-injection. Measurements were taken at five minute intervals preinjection and at three minute intervals post-injection. Control injections utilized 0.1 cc. of intravenous saline solution.\nIn the second phase, six rabbits were used. The animals were pretreated with intravenous injections of estradiol (0.1 mg/kg/day) for two days.\nIn phase three, animals from the second group were treated with estradiol and tamoxifen was added (2.0 mg/kg/day) for two days after allowing three weeks for the original estradiol to wash out. Another group of six animals was pretreated with tamoxifen alone (2.0 mg/kg/day) for two days."}, "[2]": {"conditions": "cited from earlier work"}, "[3]": {"system": "mammary carcinoma in rats induced by DMBA", "conditions": "cited from earlier work"}, "[4]": {"system": "estrogen-dependent breast cancer cell cultures", "conditions": "cited from earlier work"}, "[5]": {"system": "tumor cultures without estrogen receptors", "conditions": "cited from earlier work"}, "breast cancer": {"system": "breast cancer", "conditions": "cited from earlier work"}, "[6]": {"conditions": "humans; cited from earlier work"}, "[7]": {"conditions": "100 to 200 times the recommended daily dose; cited from earlier work"}, "perfused rat mesentary": {"system": "perfused rat mesentary", "conditions": "cited from earlier work"}, "renal cortical necrosis": {"system": "renal cortical necrosis", "conditions": "induced by estrogen plus vasopression; cited from earlier work"}, "[8]": {"conditions": "mild to moderate renal failure; cited from earlier work"}, "[9]": {"conditions": "single oral dose approximately 0.3 mg/kg"}},
  "note": "Structures can show the parent of a compound that is named as a salt. Where two headings read alike, the source gives them in different places.",
  "data": [
    {"molecule": "CNC[C@H](O)c1ccc(O)c(O)c1", "note": "[epinephrine]", "values": [
      {"measurement": "decreased blood flow, % of the preinjection level", "setting": "[1]; epinephrine 0.1 cc, 1:50,000", "value": 50, "unit": "%"},
      {"measurement": "tissue necrosis", "setting": "[1]; epinephrine 0.1 cc, 1:50,000", "value": "In no case was there any tissue necrosis"}
    ]},
    {"molecule": "C[C@]12CC[C@@H]3c4ccc(O)cc4CC[C@H]3[C@@H]1CC[C@@H]2O", "note": "[estradiol]", "values": [
      {"measurement": "effect of pretreatment on epinephrine-induced fall in peripheral blood flow / vasoconstriction", "setting": "[1]", "value": "statistically similar fall in the peripheral blood flow as compared to those animals treated with epinephrine alone"}
    ]},
    {"molecule": "CC/C(=C(\\c1ccccc1)c1ccc(OCCN(C)C)cc1)c1ccccc1", "note": "[tamoxifen citrate, (Z)2-[4-(1,2-diphenyl-1-butenyl)phenoxy]-N, N-dimethylethanamine 2-hydroxy-1,2,3-propranetricarboxylate (1:1)]", "values": [
      {"measurement": "effect of pretreatment on epinephrine-induced fall in peripheral blood flow / vasoconstriction", "setting": "[1]", "value": "completely reversed the vasoconstrictive effects of epinephrine"},
      {"measurement": "effect of pretreatment on epinephrine-induced fall in peripheral blood flow / vasoconstriction", "setting": "[1]; listed as tamoxifen (Nolvadex)", "value": "completely inhibited"},
      {"measurement": "unchanged drug and hydroxylated metabolites, share of total excreted", "setting": "[2]; excreted mainly as conjugates", "value": 30, "unit": "%"},
      {"measurement": "distribution half life", "setting": "[2]; human, in vivo", "value": "7 to 14", "unit": "h"},
      {"measurement": "elimination half-life", "setting": "[2]; human, in vivo", "value": "greater than 7 days"},
      {"measurement": "excretion in urine", "setting": "[2]; in vivo", "value": "only small amounts are excreted in the urine"},
      {"measurement": "metabolism", "setting": "[2]; in vivo", "value": "metabolised in the liver"},
      {"measurement": "absorption from the gastrointestinal tract", "setting": "[2]; oral", "value": "well-absorbed from the gastrointestinal tract"},
      {"measurement": "excretion of radioactivity in the feces", "setting": "[2]; radiolabeled tamoxifen citrate, person", "value": "most of the radioactivity is slowly excreted in the feces with only small amounts appearing in the urine"},
      {"measurement": "initial half-life", "setting": "[2]; [9]", "value": "7 to 14", "unit": "h"},
      {"measurement": "peak blood level of total radioactivity", "setting": "[2]; [9]", "value": "0.06-0.14 micrograms/mL"},
      {"measurement": "secondary peaks, time", "setting": "[2]; [9]", "value": "four"},
      {"measurement": "time of peak blood level of total radioactivity", "setting": "[2]; [9]", "value": "4 to 7", "unit": "h"},
      {"measurement": "frequency of tumor development", "setting": "[3]; administered with DMBA", "value": "decreases the frequency of tumor development"},
      {"measurement": "effect on DMBA-induced mammary carcinoma", "setting": "[3]; rats", "value": "inhibit or reverse mammary carcinoma in rats"},
      {"measurement": "cell reproduction", "setting": "[4]", "value": "inhibit cell reproduction"},
      {"measurement": "effect in tumor cultures", "setting": "[5]", "value": "no significant effect"},
      {"measurement": "anti-tumor effect at higher dose", "setting": "breast cancer; 40 mg per day, metastatic breast cancer to the lung", "value": "higher anti-tumor effect"},
      {"measurement": "improvement at higher daily doses", "setting": "breast cancer; 80 mg daily", "value": "have not generally resulted in greater improvement"},
      {"measurement": "delay of recurrence", "setting": "breast cancer; following total mastectomy and axillary dissection or segmental mastectomy, axillary dissection, and breast radiation, axillary node-negative breast cancer", "value": "effective in delaying the reoccurence"},
      {"measurement": "delay of recurrence", "setting": "breast cancer; following total mastectomy and axillary dissection, post-menopausal women", "value": "effective in delaying reoccurence"},
      {"measurement": "overdose cases", "setting": "[6]", "value": "no cases of tamoxifen citrate overdose have been reported in humans"},
      {"measurement": "overdose toxicity", "setting": "[7]", "value": "respiratory difficulties and convulsions"},
      {"measurement": "calcium antagonism", "setting": "perfused rat mesentary", "value": "calcium antagonist in perfused rat mesentary"},
      {"measurement": "effect on development of renal cortical necrosis", "setting": "renal cortical necrosis", "value": "have an effect on the development of renal cortical necrosis"},
      {"measurement": "dose adjustment in renal failure", "setting": "[8]", "value": "dose adjustments are not needed in mild to moderate renal failure"}
    ]}
  ]
}
